Test results published in paper PMC12389442, “Towards a Consensus for the Analysis and Exchange of TFA as a Counterion in Synthetic Peptides and Its Influence on Membrane Permeation” (Pharmaceuticals, 2025).
Values belong to the molecule of their own block, whether it stands above or below them.

What was measured:
[1] = liposomal fluorescence assay (HPTS) for passive membrane permeation
Description: (§1) To investigate the influence of TFA^− and Cl^− as counterions on the membrane permeation of synthetic peptides, a liposomal fluorescence assay was performed as previously described [37, 38]. The assay relies on the change in fluorescence of HPTS correlating to the liposomal internal pH change altered by permeation of an acidic or basic compound across the phospholipid bilayer. […] We first evaluated the impact of counterions on the permeation kinetics of the CPPs. Fitted biexponential curves and calculated log Permapp values are shown if the obtained normalized RMSE was <0.10. […] Control experiments with TFA and HCl are also shown for reference. […] To complement the CPP study, we also investigated peptides AT 1–4 in the permeation assay.
(§2) To investigate the influence of the counterions on the membrane permeability of peptides, a liposomal fluorescence assay was performed using a previously described method adapted to a plate reader [37, 38].

[2] = at the concentrations used in the liposomal assay; cited from earlier work
[3] = cited from earlier work
[4] = direct pH measurement of aqueous peptide salt solutions; format: physicochemical; conditions: before exchange (TFA salt), about 2–2.4 mg/mL peptide salt
Source text: Direct pH measurements of aqueous solutions of peptides present as TFA, as well as Cl salts, were acidic in a pH range below 3 (exact values can be found in the Supporting Information). […] Strong counterions as Cl^− and TFA^− may shield the positive charges and hydrogen bond donors, facilitating permeation as a net neutral complex. The complex then dissociates in the unbuffered internal liposomal phase, into a weak base (peptide) and a strong acid (HCl or TFA), resulting in the release of protons leading to acidification and a decrease in fluorescence. This assumption would align with the concept of hydrophobic ion pairing, described to enhance the membrane permeability of charged molecules in drug delivery. Our findings confirm results of previous studies that counterions cannot be neglected and the salt form might affect the membrane permeation behavior of peptides, among other things. Given that counterions are often unreported in the literature, we herein emphasize the need for explicit consideration and clarification in peptide-based permeation assays and further functional studies.
Table S8: pH measurements of AT1-4 peptide salt in aq. solution after exchange and lyophilization
Before Conc. peptide 2.38 2.38

[5] = not told
Description: as §1, §2

[6] = peptide integrity during counterion exchange with aq. HCl, HPLC-UV; format: physicochemical
Description: As degradation issues in aqueous acidic solutions have been reported previously, the integrity of AT 1 during counterion exchange with the different concentrations of HCl was measured with HPLC-UV. […] Similar results could be found for all other peptides under investigation (Supplementary Materials Section S3). […] Nevertheless, the stability of the peptide as well as the counterion exchange efficacy may vary, depending on the peptide sequence. Therefore, the TFA^− content as well as the purity should always be confirmed after counterion exchange.
For the counterion exchange of TFA^− with Cl^−, the peptide salt was dissolved in a diluted aqueous HCl solution at a concentration of 1 mg/ml. […] To evaluate the influence of the peptide sequence, counterion exchange was also performed for AT 2, AT 3, and AT 4 with the optimally determined salt concentration of 10 mM. […] For all peptide samples, the content of counterions was measured by FT-IR, ^19F-NMR, and HPLC-ELSD before the exchange as well as after each lyophilization cycle (Ex 0, Ex 1, Ex 2, and Ex 3). […] HPLC-ELSD samples containing 0.75 mg/mL peptide salt in H2O were measured in triplicate with an injection volume of 5 and 20 µL. The purity of the samples was monitored during the counterion exchange with a 0.25 mg/mL peptide salt solution according to the purity method described below. […]

[7] = counterion (TFA−, Cl−, Na+) content of peptide salt by HPLC-ELSD during HCl exchange; format: physicochemical
Description: The TFA^− content in samples was quantified using three analytical methods, namely FT-IR, ^19F-NMR, and HPLC-ELSD, adapted from previous publications. The methods are described in detail in the Supplementary Materials Section S2. In short, FT-IR spectra were recorded in aqueous solution at a wavelength from 4000 cm^−1 to 600 cm^−1 (PerkinElmer Inc., Waltham, MA, USA). The absorbance maxima in the TFA^− absorbance range of 1210 to 1190 cm^−1 were determined using Python (3.10.10, https://docs.python.org/3/reference (accessed 22 April 2024)). The ^19F-NMR (Bruker Avance III 400 MHz NMR spectrometer, Bremen, Germany) measurements were performed in 10% deuterium oxide (D2O; >99.9 atom% D, Apollo Scientific, Bredbury, United Kingdom) in H2O (nanopure water, in-house water purification system ELGA Purelab, Villmergen, Switzerland) and the signal areas were determined via auto-integration. The HPLC-ELSD (VWR ELITE Lachrome Series, Dietikon, Switzerland) method was used under isocratic conditions with a mobile phase consisting of 40% 20 mM ammonium formate (≥99%, Sigma Aldrich, Buchs, Switzerland) in H2O (pH 4.0) and 60% acetonitrile (ACN; HPLC gradient grade, ≥99.9%, Sigma Aldrich, Buchs, Switzerland). Separation was achieved on an Acclaim Trinity P1 column (3 mm × 100 mm, Thermo Fisher Scientific, Sunnyvale, CA, USA) allowing for the simultaneous detection of TFA^−, Cl^−, and Na^+. Retention times were determined by single injection of analytes and quantification performed via peak area. All analytical methods were validated according to the ICH guidelines. For each analysis method, calibrators with concentrations in the corresponding quantitative range for TFA^− (additionally, Na^+ and Cl^− for HPLC-ELSD) were prepared and aliquoted for each validation day (4 days for FT-IR and ^19F-NMR, 8 days for HPLC-ELSD). Quality control (QC) samples (QC low, med, and high) were prepared independently. All aliquots were stored at 5 °C. Over a period of 7 (FT-IR and ^19F-NMR) or 21 days (HPLC-ELSD), daily regression curves were determined using the generalized least squares regression model. For the ^19F-NMR and FT-IR method, a linear model was used, and for the HPLC-ELSD method a polynomial model. Weightings of x, 1/x, and 1/x^2 were considered for the calibration curves. The accuracy was determined by comparing the established concentration of the QC sample concentration and the theoretical concentration. Bias and intra- and inter-day precision (RSDR and RSDT) were calculated according to Peters et al.. […] The limit of detection (LoD) and limit of quantification (LoQ) for the FT-IR and ^19F-NMR methods were calculated according following ICH guidelines based on the standard deviation of the response and slope. As a quadratic regression curve was determined for the HPLC-ELSD method, LoD and LoQ were determined using the signal-to-noise approach. To assess the stability of the calibration curve, the concentration of the QCs for each day was recalculated with the calibration curve established on the first day and the bias was determined by comparison with the theoretical value calculated.
For the counterion exchange of TFA^− with Cl^−, the peptide salt was dissolved in a diluted aqueous HCl solution at a concentration of 1 mg/ml. […] To evaluate the influence of the peptide sequence, counterion exchange was also performed for AT 2, AT 3, and AT 4 with the optimally determined salt concentration of 10 mM. […]

Molecule: H2N-VYIHPF-COOH [AT 4]
pH of peptide salt in aq. solution [4]: 2.39

Molecule: H2N-DRVYIHPFHL-COOH (H-DRVYIHPFHL-OH) [AT 1, angiotensin model peptide synthesized by SPPS]
degradation products during counterion exchange ([6]; HCl up to 100 mM): No degradation products were observed
purity during counterion exchange (stability in aq. HCl) ([6]; all HCl concentrations (0–100 mM), over three exchange cycles): above 96%
Cl− content relative to expected value based on stoichiometric exchange ([7]; 10 mM HCl, single cycle): 99.0%
TFA− content of peptide salt ([7]; after one exchange cycle with 10 and 100 mM HCl, below LoQ of all techniques): below 1 % (w/w)
TFA− content of peptide salt ([7]; after purification, before exchange, HPLC-ELSD): 0.333 ± 0.008 mg TFA^− per mg peptide salt
TFA− content of peptide salt ([7]; control 0 mM HCl, after three exchange cycles): 0.215 ± 0.023 mg TFA^− per mg peptide salt
Cl− content of peptide salt ([7]; exchanged with 10 mM HCl, after a single cycle): 0.098 mg per 1 mg peptide salt
pH of peptide salt in aq. solution [4]: 2.59

Molecule: H2N-DRVYIHPF-COOH (H-DRVYIHPF-OH) [AT 2, angiotensin peptide synthesized by SPPS]
pH of peptide salt in aq. solution [4]: 2.63

Molecule: H2N-RVYIHPF-COOH [AT 3]
pH of peptide salt in aq. solution [4]: 2.63

Now from value to molecule, other results behind:

passive membrane permeation (qualitative) ([1]; Cl salt): did not detect permeation
passive membrane permeation (qualitative) ([1]; TFA salt): showed passive permeation
Log Permapp ([1]; TFA salt, 50 µM peptide solution added to liposomes, outer phase pH 6.0, 28.5 °C, ± standard error of the fit, n = 3): -6.913 ± 0.048 cm/s
Molecule: H-LLIILRRRIRKQAHAHSK-OH [pVEC, H2N-LLIILRRRIRKQAHAHSK-COOH]
POPC membrane disruption [2]: no POPC membrane disruption was observed
hemolytic activity [3]: general hemolytic activity is described

influence of type of counterion on passive permeation [5]: unaffected by the type of counterion
permeation kinetics / fluorescence change (qualitative) [5]: biexponential kinetics were observed
Molecule: CC[C@H](C)[C@H](NC(=O)[C@H](CCCCN)NC(=O)[C@@H](NC(=O)[C@H](CCC(N)=O)NC(=O)[C@@H](N)CCCNC(=N)N)[C@@H](C)CC)C(=O)N[C@@H](Cc1c[nH]c2ccccc12)C(=O)N[C@@H](Cc1ccccc1)C(=O)N[C@@H](CCC(N)=O)C(=O)N[C@@H](CC(N)=O)C(=O)N[C@@H](CCCNC(=N)N)C(=O)N[C@@H](CCCNC(=N)N)C(=O)N[C@@H](CCSC)C(=O)N[C@@H](CCCCN)C(=O)N[C@@H](Cc1c[nH]c2ccccc12)C(=O)N[C@@H](CCCCN)C(=O)N[C@@H](CCCCN)C(N)=O [AntP, H2N-RQIKIWFQNRRMKWKK-CONH2]

permeation kinetics / fluorescence change (qualitative) [5]: biexponential kinetics were observed
Molecule: H-KETWWETWWTEWSQPKKKRKV-OH [Pep1]
influence of type of counterion on passive permeation [5]: influence the amplitude of the permeation curve, although the overall log Permapp remained similar
